Legend:
Brain [1] = experiment: Drug uptake in LPS-treated mouse whole brain at 10 to 18 MBq, iv by PET imaging analysis in presence of […]; format: ADME, organism-based; conditions: in vivo
Cortex [2] = experiment: Drug uptake in LPS-treated mouse cortex at 10 to 18 MBq, iv by PET imaging analysis in presence of […]; format: ADME, organism-based; conditions: in vivo
Hippocampus [3] = experiment: Drug uptake in LPS-treated mouse hippocampus at 10 to 18 MBq, iv by PET imaging analysis in presence of […]; format: ADME, organism-based; conditions: in vivo
Cerebellum [4] = experiment: Drug uptake in LPS-treated mouse cerebellum at 10 to 18 MBq, iv by PET imaging analysis in presence of GW405883; format: ADME, organism-based; conditions: in vivo
Plasma [5] = experiment: Stability in human plasma after 40 mins; format: ADME, cell-free
[6] = Partition coefficient, log D of the compound in n-octanol/phosphate buffer at pH 7.4 after 15 mins by shake flask method; format: physicochemical
Plasma [7] = experiment: Stability in mouse plasma after 40 mins; format: ADME, cell-free
Plasma [8] = experiment: Stability in rat plasma after 40 mins; format: ADME, cell-free
[9] = Drug uptake in human cervical spinal cord at 0.4 nM after 15 mins by autoradiography; format: ADME, tissue-based; conditions: 0.25 h, 0.0004 µM
[10] = Drug uptake in human lumbar spinal cord at 0.4 nM after 15 mins by autoradiography; format: ADME, tissue-based; conditions: 0.25 h, 0.0004 µM
[11] = Drug metabolism in Wistar rat plasma assessed as parent compound remaining at 115 to 163 MBq, iv after 5 mins; format: ADME, organism-based; conditions: read-out: Stability
[12] = Drug metabolism in Wistar rat plasma assessed as parent compound remaining at 115 to 163 MBq, iv after 10 mins; format: ADME, organism-based; conditions: read-out: Stability
[13] = Drug metabolism in Wistar rat plasma assessed as parent compound remaining at 115 to 163 MBq, iv after 20 mins; format: ADME, organism-based; conditions: read-out: Stability
[14] = Drug metabolism in Wistar rat spleen assessed as parent compound remaining at 115 to 163 MBq, iv after 20 mins; format: ADME, organism-based; conditions: read-out: Stability
Spleen [15] = experiment: Biodistribution in Wistar rat spleen at 5 to 10 MBq, iv after 15 mins by gamma counting analysis; format: ADME, organism-based; conditions: in vivo, 0.25 h
Liver [16] = experiment: Biodistribution in Wistar rat liver at 5 to 10 MBq, iv after 15 mins by gamma counting analysis; format: ADME, organism-based; conditions: in vivo, 0.25 h
Kidney [17] = experiment: Biodistribution in Wistar rat kidneys at 5 to 10 MBq, iv after 15 mins by gamma counting analysis; format: ADME, organism-based; conditions: in vivo, 0.25 h
Adrenal gland [18] = experiment: Biodistribution in Wistar rat adrenal gland at 5 to 10 MBq, iv after 15 mins by gamma counting analysis; format: ADME, organism-based; conditions: in vivo, 0.25 h
Lung [19] = experiment: Biodistribution in Wistar rat lung at 5 to 10 MBq, iv after 15 mins by gamma counting analysis; format: ADME, organism-based; conditions: in vivo, 0.25 h
Bone [20] = experiment: Biodistribution in Wistar rat bone at 5 to 10 MBq, iv after 15 mins by gamma counting analysis; format: ADME, organism-based, Bone element; conditions: in vivo, 0.25 h
Heart [21] = experiment: Biodistribution in Wistar rat heart at 5 to 10 MBq, iv after 15 mins by gamma counting analysis; format: ADME, organism-based; conditions: in vivo, 0.25 h
Rattus norvegicus [22] = experiment: Biodistribution in Wistar rat fat at 5 to 10 MBq, iv after 15 mins by gamma counting analysis; format: ADME, organism-based, Adipose tissue; conditions: in vivo, 0.25 h
Small intestine [23] = experiment: Biodistribution in Wistar rat small intestine at 5 to 10 MBq, iv after 15 mins by gamma counting analysis; format: ADME, organism-based; conditions: in vivo, 0.25 h
Rattus norvegicus [24] = experiment: Biodistribution in Wistar rat testis at 5 to 10 MBq, iv after 15 mins by gamma counting analysis; format: ADME, organism-based; conditions: in vivo, 0.25 h
Blood [25] = experiment: Biodistribution in Wistar rat blood at 5 to 10 MBq, iv after 15 mins by gamma counting analysis; format: ADME, organism-based; conditions: in vivo, 0.25 h
Rattus norvegicus [26] = experiment: Biodistribution in Wistar rat thyroid gland at 5 to 10 MBq, iv after 15 mins by gamma counting analysis; format: ADME, organism-based; conditions: in vivo, 0.25 h
[27] = Biodistribution in Wistar rat urine at 5 to 10 MBq, iv after 15 mins by gamma counting analysis; format: ADME, organism-based; conditions: in vivo, 0.25 h
Muscle tissue [28] = experiment: Biodistribution in Wistar rat muscle at 5 to 10 MBq, iv after 15 mins by gamma counting analysis; format: ADME, organism-based; conditions: in vivo, 0.25 h
Pancreas [29] = experiment: Biodistribution in Wistar rat pancreas at 5 to 10 MBq, iv after 15 mins by gamma counting analysis; format: ADME, organism-based; conditions: in vivo, 0.25 h
Zone of skin [30] = experiment: Biodistribution in Wistar rat skin at 5 to 10 MBq, iv after 15 mins by gamma counting analysis; format: ADME, organism-based; conditions: in vivo, 0.25 h
Brain [31] = experiment: Biodistribution in Wistar rat brain at 5 to 10 MBq, iv after 15 mins by gamma counting analysis; format: ADME, organism-based; conditions: in vivo, 0.25 h
Spleen [32] = experiment: Biodistribution in Wistar rat spleen at 5 to 10 MBq, iv after 15 mins by gamma counting analysis in presence of GW405883; format: ADME, organism-based; conditions: in vivo, 0.25 h
Liver [33] = experiment: Biodistribution in Wistar rat liver at 5 to 10 MBq, iv after 15 mins by gamma counting analysis in presence of GW405883; format: ADME, organism-based; conditions: in vivo, 0.25 h
Kidney [34] = experiment: Biodistribution in Wistar rat kidneys at 5 to 10 MBq, iv after 15 mins by gamma counting analysis in presence of GW405883; format: ADME, organism-based; conditions: in vivo, 0.25 h
Adrenal gland [35] = experiment: Biodistribution in Wistar rat adrenal gland at 5 to 10 MBq, iv after 15 mins by gamma counting analysis in presence of GW405883; format: ADME, organism-based; conditions: in vivo, 0.25 h
Lung [36] = experiment: Biodistribution in Wistar rat lung at 5 to 10 MBq, iv after 15 mins by gamma counting analysis in presence of GW405883; format: ADME, organism-based; conditions: in vivo, 0.25 h
Bone [37] = experiment: Biodistribution in Wistar rat bone at 5 to 10 MBq, iv after 15 mins by gamma counting analysis in presence of GW405883; format: ADME, organism-based, Bone element; conditions: in vivo, 0.25 h
Heart [38] = experiment: Biodistribution in Wistar rat heart at 5 to 10 MBq, iv after 15 mins by gamma counting analysis in presence of GW405883; format: ADME, organism-based; conditions: in vivo, 0.25 h
Rattus norvegicus [39] = experiment: Biodistribution in Wistar rat fat at 5 to 10 MBq, iv after 15 mins by gamma counting analysis in presence of GW405883; format: ADME, organism-based, Adipose tissue; conditions: in vivo, 0.25 h
Small intestine [40] = experiment: Biodistribution in Wistar rat small intestine at 5 to 10 MBq, iv after 15 mins by gamma counting analysis in presence of GW405883; format: ADME, organism-based; conditions: in vivo, 0.25 h
Rattus norvegicus [41] = experiment: Biodistribution in Wistar rat testis at 5 to 10 MBq, iv after 15 mins by gamma counting analysis in presence of GW405883; format: ADME, organism-based; conditions: in vivo, 0.25 h
Blood [42] = experiment: Biodistribution in Wistar rat blood at 5 to 10 MBq, iv after 15 mins by gamma counting analysis in presence of GW405883; format: ADME, organism-based; conditions: in vivo, 0.25 h
Rattus norvegicus [43] = experiment: Biodistribution in Wistar rat thyroid gland at 5 to 10 MBq, iv after 15 mins by gamma counting analysis in presence of GW405883; format: ADME, organism-based; conditions: in vivo, 0.25 h
[44] = Biodistribution in Wistar rat urine at 5 to 10 MBq, iv after 15 mins by gamma counting analysis in presence of GW405883; format: ADME, organism-based; conditions: in vivo, 0.25 h
Muscle tissue [45] = experiment: Biodistribution in Wistar rat muscle at 5 to 10 MBq, iv after 15 mins by gamma counting analysis in presence of GW405883; format: ADME, organism-based; conditions: in vivo, 0.25 h
Pancreas [46] = experiment: Biodistribution in Wistar rat pancreas at 5 to 10 MBq, iv after 15 mins by gamma counting analysis in presence of GW405883; format: ADME, organism-based; conditions: in vivo, 0.25 h
Zone of skin [47] = experiment: Biodistribution in Wistar rat skin at 5 to 10 MBq, iv after 15 mins by gamma counting analysis in presence of GW405883; format: ADME, organism-based; conditions: in vivo, 0.25 h
Brain [48] = experiment: Biodistribution in Wistar rat brain at 5 to 10 MBq, iv after 15 mins by gamma counting analysis in presence of GW405883; format: ADME, organism-based; conditions: in vivo, 0.25 h
Spleen [49] = experiment: Biodistribution in Wistar rat spleen at 5 to 10 MBq, iv after 15 mins by gamma counting analysis in presence of GW405883 relative to control; format: ADME, organism-based; conditions: in vivo, 0.25 h
Brain [50] = experiment: Drug uptake in LPS-treated mouse brain at 0.2 nM, iv after 5 days by PET imaging analysis relative to vehicle-treated control; format: ADME, organism-based; conditions: in vivo, 120 h, 0.0002 µM
Brain [51] = experiment: Drug uptake in LPS-treated mouse brain at 0.2 nM, iv after 5 days by PET imaging analysis in presence of GW405883 relative to control; format: ADME, organism-based; conditions: in vivo, 120 h, 0.0002 µM
Brain [52] = experiment: Drug uptake in LPS-treated mouse whole brain at 10 to 18 MBq, iv by PET imaging analysis; format: ADME, organism-based; conditions: in vivo
Cortex [53] = experiment: Drug uptake in LPS-treated mouse cortex at 10 to 18 MBq, iv by PET imaging analysis; format: ADME, organism-based; conditions: in vivo
Hippocampus [54] = experiment: Drug uptake in LPS-treated mouse hippocampus at 10 to 18 MBq, iv by PET imaging analysis; format: ADME, organism-based; conditions: in vivo
Cerebellum [55] = experiment: Drug uptake in LPS-treated mouse cerebellum at 10 to 18 MBq, iv by PET imaging analysis; format: ADME, organism-based; conditions: in vivo

CCOCCn1cc(C(=O)NC23CC4CC(CC(C4)C2)C3)c(=O)c2cccc(O[11CH3])c21
Drug uptake (Brain [1]): Not Active | Drug uptake (Cortex [2]): Not Active | Drug uptake (Hippocampus [3]): Not Active | Drug uptake (Cerebellum [4]): Not Active | Stability (Plasma [5]): Stable | logD at 0.25 h [6]: 2.78 | Stability (Plasma [7]): Stable | Stability (Plasma [8]): Stable | Drug uptake [9]: Active | Drug uptake [10]: Active | remaining at 5 min [11]: 72% | remaining at 10 min [12]: 55% | remaining at 20 min [13]: 47% | remaining at 20 min [14]: 81% | Drug uptake (Spleen [15]): 0.284 % ID/g | Drug uptake (Liver [16]): 0.505 % ID/g | Drug uptake (Kidney [17]): 0.122 % ID/g | Drug uptake (Adrenal gland [18]): 0.216 % ID/g | Drug uptake (Lung [19]): 0.088 % ID/g | Drug uptake (Bone [20]): 0.046 % ID/g | Drug uptake (Heart [21]): 0.08 % ID/g | Drug uptake (Rattus norvegicus [22]): 0.05 % ID/g | Drug uptake (Small intestine [23]): 0.924 % ID/g | Drug uptake (Rattus norvegicus [24]): 0.033 % ID/g | Drug uptake (Blood [25]): 0.044 % ID/g | Drug uptake (Rattus norvegicus [26]): 0.077 % ID/g | Drug uptake [27]: 0.06 % ID/g | Drug uptake (Muscle tissue [28]): 0.065 % ID/g | Drug uptake (Pancreas [29]): 0.11 % ID/g | Drug uptake (Zone of skin [30]): 0.05 % ID/g | Drug uptake (Brain [31]): 0.025 % ID/g | Drug uptake (Spleen [32]): 0.062 % ID/g | Drug uptake (Liver [33]): 0.38 % ID/g | Drug uptake (Kidney [34]): 0.134 % ID/g | Drug uptake (Adrenal gland [35]): 0.262 % ID/g | Drug uptake (Lung [36]): 0.075 % ID/g | Drug uptake (Bone [37]): 0.039 % ID/g | Drug uptake (Heart [38]): 0.091 % ID/g | Drug uptake (Rattus norvegicus [39]): 0.053 % ID/g | Drug uptake (Small intestine [40]): 0.425 % ID/g | Drug uptake (Rattus norvegicus [41]): 0.034 % ID/g | Drug uptake (Blood [42]): 0.03 % ID/g | Drug uptake (Rattus norvegicus [43]): 0.064 % ID/g | Drug uptake [44]: 0.08 % ID/g | Drug uptake (Muscle tissue [45]): 0.071 % ID/g | Drug uptake (Pancreas [46]): 0.113 % ID/g | Drug uptake (Zone of skin [47]): 0.057 % ID/g | Drug uptake (Brain [48]): 0.028 % ID/g | Drug uptake (Spleen [49]): 78% | Drug uptake (Brain [50]): Active | Drug uptake (Brain [51]): Not Active | Drug uptake (Brain [52]): Active | Drug uptake (Cortex [53]): Active | Drug uptake (Hippocampus [54]): Active | Drug uptake (Cerebellum [55]): Active
